According to patent US20210095322A1, “HIGH-PURITY STEVIOL GLYCOSIDES” (PureCircle USA Inc., priority 2018, published 2021):
Where two headings read alike, the source gives them in different places.

Experiments:
[1] = aqueous solution; Ref: Celaya et al (2016); cited from earlier work
[2] = FEMA GRAS publication; cited from earlier work
[3] = Isosweet determination (2-AFC) vs sucrose in acidified water, sweetness potency; assay type: in vivo, human; details: pH = 3.2
Protocol: As an example, Reb AM was evaluated.

[4] = Solubility characteristics and solution stability in water; assay type: physicochemical
Protocol: Solubility characteristics were measured as follows. Prepare the following solutions in water and stir at 700 rpm for each. Add heat if necessary at 2 minutes and 30 seconds of stirring. Using a stopwatch, determine how long it takes all powder to dissolve completely and record the temperature at which it dissolves. The following table summarizes the solubility characteristics of Rebaudiosides D, M, and AM.

## C=C1C[C@@]23CC[C@H]4[C@@](C)(CCC[C@@]4(C)C(=O)O[C@@H]4O[C@H](CO)[C@@H](O)[C@H](O)[C@H]4O)[C@@H]2CC[C@]1(O[C@@H]1O[C@H](CO)[C@@H](O)[C@H](O[C@@H]2O[C@H](CO)[C@@H](O)[C@H](O)[C@H]2O)[C@H]1O[C@@H]1O[C@H](CO)[C@@H](O)[C@H](O)[C@H]1O)C3 [Reb A, rebaudioside A]
[1]
  Solubility: <0.7%
[2]
  Sweetness Perception Threshold Concentration: 30 ppm
[3]; 2.5% SE
  Sweetness Equivalent (ppm) in Water: 94 ppm
  Sweetness Potency in Water: 266 x sugar equivalent
[3]; 5.0% SE
  Sweetness Equivalent (ppm) in Water: 299 ppm
  Sweetness Potency in Water: 167 x sugar equivalent

## C=C1C[C@@]23CC[C@H]4[C@@](C)(CCC[C@@]4(C)C(=O)O[C@@H]4O[C@H](CO)[C@@H](O)[C@H](O[C@@H]5O[C@H](CO)[C@@H](O)[C@H](O)[C@H]5O)[C@H]4O[C@@H]4O[C@H](CO)[C@@H](O)[C@H](O)[C@H]4O)[C@@H]2CC[C@]1(O[C@@H]1O[C@H](CO)[C@@H](O)[C@H](O[C@@H]2O[C@H](CO)[C@@H](O)[C@H](O)[C@H]2O)[C@H]1O[C@@H]1O[C@H](CO)[C@@H](O)[C@H](O)[C@H]1O)C3 [Reb M, rebaudioside M]
[4]; Test Conc. 0.1%
  Comment on solubility: Easily Soluble
  Dissolution in water (Heated), time: No heat needed
  Dissolution water (Ambient), time of agitation: 12 minutes of
  Solution after 24 hrs: Clear
  Solution after 48 hrs: Clear
[4]; Test Conc. 0.3%
  Comment on solubility: Moderately
  Dissolution in water (Heated), temperature: Heated to 99 deg C. deg. C.
  Solution after 24 hrs: Clear
  Solution after 48 hrs: Slight
[4]; Test Conc. 0.5%
  Comment on solubility: Requires
  Dissolution in water (Heated), temperature: 87 deg. C. with
  Dissolution in water (Heated), time: agitation. 16 min
  Solution after 24 hrs: Moderate
[4]; summary of solution stability in water
  Solubility: 0.3%
[2]
  Sweetness Perception Threshold Concentration: 24 ppm
[3]; 2.5% SE
  Sweetness Equivalent (ppm) in Water: 84 ppm
  Sweetness Potency in Water: 298 x sugar equivalent
[3]; 5.0% SE
  Sweetness Equivalent (ppm) in Water: 209 ppm
  Sweetness Potency in Water: 239 x sugar equivalent
[3]; 7.5% SE
  Sweetness Equivalent (ppm) in Water: 418 ppm
  Sweetness Potency in Water: 179 x sugar equivalent
[3]; 10.0% SE
  Sweetness Equivalent (ppm) in Water: 832 ppm
  Sweetness Potency in Water: 90 x sugar equivalent

## C=C1C[C@@]23CC[C@H]4[C@@](C)(CCC[C@@]4(C)C(=O)O[C@@H]4O[C@H](CO)[C@@H](O)[C@H](O)[C@H]4O)[C@@H]2CC[C@]1(O[C@@H]1O[C@H](CO)[C@@H](O)[C@H](O)[C@H]1O[C@@H]1O[C@H](CO)[C@@H](O)[C@H](O)[C@H]1O)C3 [Stevioside, stevioside]
[1]
  Solubility: <0.7%
